Source: patent publication US6830883B1, “Method for typing of minor histocompatibility antigen HA-1” (Rijksuniversiteit Leiden, priority 1997, dated 2004)
Where no end group is shown, it is not given here.

What was measured:
[1] = system: recombinant HLA-A2.1 and β2-microglobulin; experiment: HLA-A2.1 peptide binding assay (inhibition of binding of fluorescent standard peptide […], cell free); parameters: species or system human; details: for IC50: cell free, determined on the results of 4 experiments, read-out: IC50 (concentration that inhibited the binding of a fluorescent standard peptide to HLA-A2.1 by 50%); for binder category for HLA-A2.1: classified from the IC50
Description: a. Binding of HA-1^H and HA-1^R peptides to HLA-A2.1. The binding of HA-1^H and HA-1^R peptides were assayed for their ability to inhibit the binding of fluorescent peptide […] to recombinant HLA-A2.1 and β2-microglobulin in a cell free peptide binding assay. One representative experiment is shown.
A quantitative assay for HLA-A2.1 binding peptides based on the inhibition of binding of the flourescent labeled standard peptide Hbc 18-27 F to C6 ([…]) to recombinant HLA-A2.1 protein and β2-microglobulin was used ^26,27. In short, HLA-A2.1 concentrations yielding approximately 40-60% bound fluorescent standard peptide were used with 15 pmol/well (150 nM) β2-microglobulin (Sigma). Various doses of the test peptides were coincubated with 100 fmol/well (1 nM) fluorescent standard peptide. HLA-A2.1 and β2-microglobulin for 1 days at room temperature in the dark in a volume of 100 μl in assay buffer. The percent of MHC-bound fluoescence was determined by gel filtration and the 50% inhibitory dose was deduced for each peptide using one-site competition non-linear regression analysis with the prismgraph software. Synthetic peptides were manufactured on a Abimed 422 multiple peptide synthesizer (Abimed, Langenfeld, Germany) and were more than 90% pure as checked by reverse phase HPLC.

[2] = system: HA-1 specific T cell clones 3HA15, clone 15 and 5W38 (T2 target cells); experiment: 51Cr-release reconstitution assay: synthetic peptide on T2 cells with HA-1 specific CTL clones; assay type: cell-based, human; details: for recognition by HA-1 specific CTL clones / reconstitution of the HA-1 epitope: synthetic peptide titrated on T2 cells, 51Cr-release
Description: b. Reconstitution assay with different concentrations of synthetic mH HA-1 peptide with three HA-1 specific T cell clones, 3HA15, clone 15 and 5W38. Background lysis of T2 by the CTL in the absence of any peptide was for 3HA15 4%, for clone 15 10% and for 5W38 2%. Positive control lysis was for 3HA15 46%, for clone 15 47% and 5W38 48 48%.
b. Reconstitution assay with different concentrations of synthetic […] peptide with HA-1 specific T cells. The HA-1^R peptide was titrated and preincubated with T2 cells. Three HA-1 specific T cells clones, 5W38, 3HA15 and clone 15 were added and a 4 hr ^51Cr-release assay was performed. Background lysis of T2 by the CTL in the absence of any peptide was for 3HA15 4%, for clone 15 10% and for 5W38 2%. Positive control lysis was for 3HA15 46%, for clone 15 47% and 5W38 48%.
HPLC fractions and synthetic peptides were tested in a ^51Cr-release assay as described^24. 2500 ^51Cr labeled T2 cells in 25 μl were incubated with 25 μl peptide dissolved in Hanks 50 mM Hepes for 30 minutes at 37° C. Cytotoxic T cells were added in an endvolume of 150 μl. When HPLC peptide fractions were tested, T2 was incubated with 2 μg/ml MA2.1 during the ^51Cr labelling. After 4 hours at 37° C. the supernatants were harvested.

Row | Sequence | IC50 [1] [nM] | binder category for HLA-A2.1 [1] | EC50 ([2]; 3 different HA-1 specific CTL clones, T2 target cells, 4 hr, read-out: half maximal activity in CML (51Cr-release) assay) [nM] | recognition by HA-1 specific CTL clones / reconstitution of the HA-1 epitope [2] | binding affinity for HLA-A2.1, fold lower than the HA-1^H peptide ([1]; HA-1^R versus HA-1^H peptide) [fold] | peptide concentration needed for recognition, times higher than for the HA-1^H peptide ([2]; clone 3HA15) [times]
1 | VLHDDLLEA | 30 | high affinity binders | 0.15 to 0.2 | recognition by all three clones | – | –
2 | VLRDDLLEA | 365 | intermediate binders | – | One out of three clones (3HA15) tested showed recognition | 10 | 1000
3 | YXTDRVMTV [synthetic peptide of candidate m/z 550; X stands for isoleucine or leucine] | – | – | – | not able to reconstitute the HA-1 epitope | – | –
